Test results from BindingDB's records for doi:10.7270/Q2TX3CSC (Vanderbilt Screening Center for GPCRs, Ion Channels and …, 2009).

What follows are molecules tested against T1, Solute carrier family 12 member 5 (Homo sapiens, UniProt Q9H2X9) (assay: concentration-response of KCC2 transport modulators – cell-based, HEK293 KCC2, FluoZin-2 fluorescence, dose response (AID 1736)). Details: not given.
T1 sequence (Q9H2X9 whole entry): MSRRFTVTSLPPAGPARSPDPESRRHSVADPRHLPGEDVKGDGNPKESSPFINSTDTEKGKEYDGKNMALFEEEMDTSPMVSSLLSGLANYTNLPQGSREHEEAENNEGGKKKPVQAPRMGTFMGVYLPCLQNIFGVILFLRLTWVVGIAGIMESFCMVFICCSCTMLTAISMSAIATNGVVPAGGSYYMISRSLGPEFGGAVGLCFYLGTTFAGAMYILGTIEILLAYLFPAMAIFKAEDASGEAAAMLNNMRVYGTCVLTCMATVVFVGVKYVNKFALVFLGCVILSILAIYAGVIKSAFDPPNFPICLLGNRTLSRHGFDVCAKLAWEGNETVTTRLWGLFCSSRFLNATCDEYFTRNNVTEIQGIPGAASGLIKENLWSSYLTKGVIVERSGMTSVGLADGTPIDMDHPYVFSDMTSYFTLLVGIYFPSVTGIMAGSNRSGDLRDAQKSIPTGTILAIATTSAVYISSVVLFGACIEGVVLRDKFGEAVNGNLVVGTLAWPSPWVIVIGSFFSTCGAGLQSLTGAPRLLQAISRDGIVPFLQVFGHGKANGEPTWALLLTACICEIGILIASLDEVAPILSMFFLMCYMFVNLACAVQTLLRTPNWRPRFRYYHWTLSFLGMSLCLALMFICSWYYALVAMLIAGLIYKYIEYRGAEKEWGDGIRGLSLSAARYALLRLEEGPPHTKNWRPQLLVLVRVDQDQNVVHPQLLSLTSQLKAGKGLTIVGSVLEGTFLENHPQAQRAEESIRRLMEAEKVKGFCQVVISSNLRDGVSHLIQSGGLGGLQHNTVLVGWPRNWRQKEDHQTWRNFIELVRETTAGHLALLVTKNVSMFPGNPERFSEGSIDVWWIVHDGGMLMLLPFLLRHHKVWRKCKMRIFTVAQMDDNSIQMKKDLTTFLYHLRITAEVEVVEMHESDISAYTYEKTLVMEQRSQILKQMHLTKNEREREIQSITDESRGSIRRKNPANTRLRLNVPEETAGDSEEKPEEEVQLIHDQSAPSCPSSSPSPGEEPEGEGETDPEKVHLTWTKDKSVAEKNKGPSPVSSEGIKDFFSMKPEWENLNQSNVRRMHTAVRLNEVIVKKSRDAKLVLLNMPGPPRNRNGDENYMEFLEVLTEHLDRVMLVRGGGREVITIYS

EC50 | Compound
0.202 µM | CCc1ccc(Nc2nnc(SCc3cc(=O)n4ccsc4n3)s2)cc1 [7-[[5-(4-ethylanilino)-1,3,4-thiadiazol-2-yl]sulfanylmethyl]-[1,3]thiazolo[3,2-a]pyrimidin-5-one]
15.3 µM | O=C(Nc1ccc(Cc2ccncc2)cc1)c1cccc([N+](=O)[O-])c1 [3-Nitro-N-(4-pyridin-4-ylmethyl-phenyl)-benzamide]
3.85 µM | Cc1ccc(OCCC(=O)OCC(=O)N2c3ccccc3CC2C)cc1 (stereo not given) [3-(4-methylphenoxy)propanoic acid [2-(2-methyl-2,3-dihydroindol-1-yl)-2-oxoethyl] ester]
4.02 µM | CCCCCC(=O)Cc1cc(O)cc2c1C(=O)Oc1cc(O)c(C(=O)O)c(CCCCC)c1O2 [3,8-Dihydroxy-11-oxo-1-(2-oxo-heptyl)-6-pentyl-11H-dibenzo[b,e][1,4]dioxepine-7-carboxylic acid]
5.64 µM | O=c1[nH]c2ccc(S(=O)(=O)N3CCN(c4ccccc4F)CC3)cc2s1 [6-{[4-(2-fluorophenyl)piperazin-1-yl]sulfonyl}-1,3-benzothiazol-2(3H)-one]
29.2 µM | O=C(NN=Cc1ccccn1)c1ccccc1O [2-oxidanyl-N-(pyridin-2-ylmethylideneamino)benzamide]
7.74 µM | Cc1oc(-c2ccccc2)nc1C[S+]([O-])CC(=O)N1CCc2ccccc2C1 (stereo not given) [1-(3,4-dihydro-1H-isoquinolin-2-yl)-2-[(5-methyl-2-phenyl-1,3-oxazol-4-yl)methylsulfinyl]ethanone]
3.19 µM | Cn1c(C(=O)NCCN2CCN(c3ccccc3F)CC2)cc2c(=O)n(C)c3ccccc3c21 [MLS000118132]
11.8 µM | Cc1ccccc1-c1nc(CS(=O)(=O)CC(=O)NCc2ccccc2)c(C)o1 [2-[[5-methyl-2-(2-methylphenyl)-1,3-oxazol-4-yl]methylsulfonyl]-N-(phenylmethyl)ethanamide]
5.4 µM | COc1ccc(S(=O)(=O)N2CCC(C(=O)N3CCc4ccccc4C3)CC2)cc1C [2-({1-[(4-methoxy-3-methylphenyl)sulfonyl]-4-piperidinyl}carbonyl)-1,2,3,4-tetrahydroisoquinoline]
0.725 µM | COc1ccc(-c2cc(CCCC(=O)NCCc3ccccc3)no2)cc1 [4-[5-(4-methoxyphenyl)-1,2-oxazol-3-yl]-N-(2-phenylethyl)butanamide]
5.37 µM | O=C(OCC(=O)N1CCc2ccccc2C1)c1ccc(N2CCOCC2)c([N+](=O)[O-])c1 [4-(4-morpholinyl)-3-nitrobenzoic acid [2-(3,4-dihydro-1H-isoquinolin-2-yl)-2-oxoethyl] ester]
0.373 µM | O=C(c1ccc(N2CCCCCC2)c([N+](=O)[O-])c1)N1CCc2ccccc21 [1-(4-azepan-1-yl-3-nitrobenzoyl)indoline]
66.5 µM | O=C(Nc1ccc2oc(-c3ccccc3F)nc2c1)c1ccco1 [MLS000709180]
964 µM | Cc1ccc(/C=C2/Sc3ccccc3N(CC(=O)NCCCOC(C)C)C2=O)cc1 [2-[(2E)-2-[(4-methylphenyl)methylidene]-3-oxidanylidene-1,4-benzothiazin-4-yl]-N-(3-propan-2-yloxypropyl)ethanamide]
5.57 µM | CS(=O)(=O)N(CC(=O)N1CCN(c2ccc(F)cc2)CC1)c1ccc(F)c(Cl)c1 [MLS000531433]
2.84 µM | Sc1nnc(Nc2ccccc2)s1 [5-anilino-3H-1,3,4-thiadiazole-2-thione]
8.56 µM | N#CC(C(=O)COc1ccccc1)c1nc2ccccc2s1 (stereo not given) [(2Z)-2-(3H-1,3-benzothiazol-2-ylidene)-3-keto-4-phenoxy-butyronitrile]
2.05 µM | Cc1ccc2oc(-c3ccc(C)c(NC(=S)NC(=O)c4cccs4)c3)nc2c1 [1-[2-Methyl-5-(5-methyl-benzooxazol-2-yl)-phenyl]-3-(thiophene-2-carbonyl)-thiourea]
4.24 µM | Cc1[nH]c2ccccc2c1SCC(=O)N1CCN(c2ccccc2)CC1 [2-[(2-methyl-1H-indol-3-yl)thio]-1-(4-phenyl-1-piperazinyl)ethanone]
771 µM | COc1ccc(N2C(=S)N=C(Nc3cccc(C)c3)C23CCCCC3)cc1 [1-(4-methoxyphenyl)-4-(3-methylanilino)-1,3-diazaspiro[4.5]dec-3-ene-2-thione]

EC50 | Compound
204 µM | S=C(NCc1ccccc1Cl)Nc1ccccc1Cl [1-(2-chlorobenzyl)-3-(2-chlorophenyl)thiourea]
2.39 µM | O=C(CSc1nnc(Cc2ccccc2)o1)c1ccc(F)cc1 [1-(4-fluorophenyl)-2-[[5-(phenylmethyl)-1,3,4-oxadiazol-2-yl]sulfanyl]ethanone]
260 µM | Cn1c(SCc2ccccc2Cl)nc2ccccc21 [2-[(2-chlorobenzyl)thio]-1-methyl-1H-benzimidazole]
1.48 µM | Cc1c(N=C2Nc3cccc4cccc2c34)c(=O)n(-c2ccccc2)n1C [4-(2-benzo[cd]indolylamino)-1,5-dimethyl-2-phenyl-3-pyrazolone]
2690 µM | Cc1ccc(CSCCNC(=O)c2ccc(C)cc2)cc1 [4-methyl-N-[2-[(4-methylbenzyl)thio]ethyl]benzamide]
2.94 µM | Cc1ccc2[nH]c3c(N4CCN(Cc5ccccc5)CC4)ncnc3c2c1 [8-methyl-4-[4-(phenylmethyl)-1-piperazinyl]-5H-pyrimido[5,4-b]indole]
6.18 µM | Cc1c(C(=O)NCCSCc2ccc(F)cc2)cnn1-c1ccc(Cl)cc1 [1-(4-chlorophenyl)-N-[2-[(4-fluorobenzyl)thio]ethyl]-5-methyl-pyrazole-4-carboxamide]
3.21 µM | Cc1[nH]c2ccccc2c1Cc1nnc(S)o1
1.48 µM | CC(C)N1C(=O)S/C(=C/c2ccccc2OCc2ccc(C(=O)O)cc2)C1=O
1.32 µM | N#Cc1nc(Cc2cccc3ccccc23)oc1N1CCOCC1 [5-(4-morpholinyl)-2-(1-naphthalenylmethyl)-4-oxazolecarbonitrile]
1.65 µM | O=S(=O)(NCCc1ccccc1F)c1cccc(S(=O)(=O)N2CCOCC2)c1 [MLS000076090]
0.34 µM | CC(C)c1onc(C(=O)N2CCN(Cc3ccccc3)CC2)c1[N+](=O)[O-] [(4-benzylpiperazin-1-yl)-(4-nitro-5-propan-2-yl-1,2-oxazol-3-yl)methanone]
4.78 µM | C=CCNc1oc(Cc2cccc3ccccc23)nc1C#N [2-(1-naphthalenylmethyl)-5-(prop-2-enylamino)-4-oxazolecarbonitrile]
14.7 µM | CCC(c1nnc(SCc2nc3ccccc3s2)n1Cc1ccccc1)N(C)C (stereo not given) [1-[5-(1,3-benzothiazol-2-ylmethylsulfanyl)-4-(phenylmethyl)-1,2,4-triazol-3-yl]-N,N-dimethyl-propan-1-amine]
98.9 µM | Oc1ccccc1CN=Nc1nc2ccccc2o1 [(6E)-6-[(1,3-benzoxazol-2-ylhydrazo)methylidene]-1-cyclohexa-2,4-dienone]
3.48 µM | Cc1ccc(NC(=O)CSc2ccc(-c3ccco3)nn2)cc1 [2-[6-(furan-2-yl)pyridazin-3-yl]sulfanyl-N-(4-methylphenyl)acetamide]
51.6 µM | O=C(CSc1ccccc1C(=O)NCc1ccccc1)NC1CCCCCCC1 [2-[2-(cyclooctylamino)-2-oxidanylidene-ethyl]sulfanyl-N-(phenylmethyl)benzamide]
32 µM | NC(=O)COc1ccccc1/C=C1/SC(=O)N(CC(=O)N2CCc3ccccc3C2)C1=O [2-[2-({3-[2-(3,4-dihydro-2(1H)-isoquinolinyl)-2-oxoethyl]-2,4-dioxo-1,3-thiazolidin-5-ylidene}methyl)phenoxy]acetamide]
1.81 µM | O=C(CSc1nnc(-c2c[nH]c3ccccc23)o1)N1CCCCC1 [SMR000003748]
165 µM | CC(C)(CN=C(S)NCCc1ccccc1)CN=C(S)NCCc1ccccc1 [1-[2,2-dimethyl-3-(2-phenylethylcarbamothioylamino)propyl]-3-(2-phenylethyl)thiourea]

Same assay, conditions: inactive by the depositor's call

EC50 | Compound
43.9 µM | Cc1nc2c(-c3ccc(Cl)cc3)c(C)[nH]n2c(=O)c1Cc1ccccc1 [6-benzyl-3-(4-chlorophenyl)-2,5-dimethylpyrazolo[1,5-a]pyrimidin-7(4H)-one]
15.7 µM | CSc1sc(-c2nnc(S)n2C)c2c1C=CCC2 [4-methyl-3-[3-(methylthio)-6,7-dihydro-2-benzothiophen-1-yl]-1H-1,2,4-triazole-5-thione]
44.2 µM | O=C(CCCn1ncn2c(cc3occc32)c1=O)N1CCc2ccccc2C1 [3-[4-(3,4-dihydro-1H-isoquinolin-2-yl)-4-keto-butyl]furo[3,4]pyrrolo[3,5-c][1,2,4]triazin-4-one]
45.8 µM | CC(C)c1ccc(C=NNC(=O)c2ccccc2Cl)cc1 [2-chloranyl-N-[(4-propan-2-ylphenyl)methylideneamino]benzamide]
